The target in assay [1] is picrotoxin binding site of GABAA receptors. As to conditions: membranes from cortices of rat brains; Table 1 of WO 2016/061527; read-out: IC50 in the TBPS displacement assay; cited from earlier work.
The target of assay [2] is T1, α1β2γ2 GABAA receptor (Homo sapiens, UniProt P14867+P47870).
T1 construct: expressed in transfected cells
As to conditions: 10 μM steroid, GABA 2 μM (EC20), LTK cells, Table 2 of WO 2016/061527; cited from earlier work.

For assay [3], the target named is T2, α4β3δ GABAA receptor (Homo sapiens, UniProt P28472+P48169). Set-up: expressed in transfected cells; host or cells: CHO cells (transient). As to conditions: 10 μM steroid, GABA 2 μM (EC20), CHO cells, Table 2 of WO 2016/061527; cited from earlier work.
The target in a further assay is T3, α1β1γ2 GABAA receptor (Homo sapiens, UniProt P14867+P18505).
T3 construct: expressed in transfected cells
Nature of the assay: FLIPR modulation of GABA response in cells expressing GABAA receptor subtype. As to conditions: in presence of GABA, — = value not measurable. The class given is cell-based. Here is the method: (§1) Cells expressing the indicated GABAA receptor subtype were exposed to gamma-aminobutyric acid in the presence of varying concentrations of either CV-10155 or SPNC-019, calcium flux was measured using a fluorometric imaging plate reader (FLIPR), and EC50 values for compounds were determined.

Assay [4] concerns the target T1, α1β2γ2 GABAA receptor. The description is as above. The class given is cell-based. As to conditions: in presence of GABA, — = value not measurable. On the procedure: as §1
The target in a further assay is T4, α1β3γ2 GABAA receptor (Homo sapiens, UniProt P14867+P28472).
T4 construct: expressed in transfected cells
The description is as above. The format is cell-based. As to conditions: in presence of GABA, — = value not measurable. Here is the method:
as §1

A further assay has as its target T5, α2β1γ2 GABAA receptor (Homo sapiens, UniProt P18505+P47869).
T5 construct: expressed in transfected cells
The description is as above. The class given is cell-based. As to conditions: in presence of GABA, — = value not measurable. On the procedure:
as §1

In another assay the target is T6, α2β2γ2 GABAA receptor (Homo sapiens, UniProt P47869+P47870).
T6 construct: expressed in transfected cells
The description is as above. The class given is cell-based. As to conditions: in presence of GABA, — = value not measurable. On the procedure: as §1

In another assay the target is T7, α2β3γ2 GABAA receptor (Homo sapiens, UniProt P28472+P47869).
T7 construct: expressed in transfected cells
The description is as above. The format is cell-based. As to conditions: in presence of GABA, — = value not measurable. Here is the method:
as §1

The target of another assay is T8, α3β1γ2 GABAA receptor (Homo sapiens, UniProt P18505+P34903).
T8 construct: expressed in transfected cells
The description is as above. As to conditions: in presence of GABA, — = value not measurable. The class given is cell-based. Here is the method: as §1

For the next assay, the target named is T9, α3β2γ2 GABAA receptor (Homo sapiens, UniProt P34903+P47870).
T9 construct: expressed in transfected cells
The description is as above. The format is cell-based. As to conditions: in presence of GABA, — = value not measurable. On the procedure: as §1

The target in the next assay is T10, α3β3γ2 GABAA receptor (Homo sapiens, UniProt P28472+P34903).
T10 construct: expressed in transfected cells
The assay is described as above. The format is cell-based. As to conditions: in presence of GABA, — = value not measurable. On the procedure:
as §1

A further assay deals with T11, α4β1γ2 GABAA receptor (Homo sapiens, UniProt P18505+P48169).
T11 construct: expressed in transfected cells
The assay is described as above. The format is cell-based. As to conditions: in presence of GABA, — = value not measurable. On the procedure: as §1

In another assay the target is T12, α4β3γ2 GABAA receptor (Homo sapiens, UniProt P28472+P48169).
T12 construct: expressed in transfected cells
Described as above. The class given is cell-based. As to conditions: in presence of GABA, — = value not measurable. Here is the method: as §1

For the next assay, the target named is T13, α5β1γ2 GABAA receptor (Homo sapiens, UniProt P18505+P31644).
T13 construct: expressed in transfected cells
The assay is described as above. The format is cell-based. As to conditions: in presence of GABA, — = value not measurable. On the procedure: as §1

For the next assay, the target named is T14, α5β2γ2 GABAA receptor (Homo sapiens, UniProt P31644+P47870).
T14 construct: expressed in transfected cells
The assay is described as above. The class given is cell-based. As to conditions: in presence of GABA, — = value not measurable. On the procedure: as §1

In another assay the target is T15, α5β3γ2 GABAA receptor (Homo sapiens, UniProt P28472+P31644).
T15 construct: expressed in transfected cells
Described as above. The format is cell-based. As to conditions: in presence of GABA, — = value not measurable. On the procedure:
as §1

In another assay the target is T16, α6β1γ2 GABAA receptor (Homo sapiens, UniProt P18505+Q16445).
T16 construct: expressed in transfected cells
The description is as above. The class given is cell-based. As to conditions: in presence of GABA, — = value not measurable. Here is the method:
as §1

Another assay has as its target T17, α6β2γ2 GABAA receptor (Homo sapiens, UniProt P47870+Q16445).
T17 construct: expressed in transfected cells
The description is as above. The format is cell-based. As to conditions: in presence of GABA, — = value not measurable. On the procedure: as §1

Another assay deals with T18, α6β3γ2 GABAA receptor (Homo sapiens, UniProt P28472+Q16445).
T18 construct: expressed in transfected cells
Described as above. As to conditions: in presence of GABA, — = value not measurable. The format is cell-based. Here is the method:
as §1

A further assay deals with GABAA receptor subtypes. As to the kind of experiment: FLIPR panel of 18 GABAA receptor subtypes. The class given is cell-based. As to conditions: for modulating activity across GABAA receptor subtypes tested: 18 subtypes, FLIPR. On the procedure: as §1
The results further indicate that the isomeric purity of compositions containing compounds of Formula (I) greatly impacts the utility of such compositions as therapeutic agents.

The target of assay [5] is T2, α4β3δ GABAA receptor. Nature of the assay: FLIPR modulation of GABA response in cells expressing GABAA receptor subtype. The class given is cell-based. Set-up: expressed in transfected cells. As to conditions: in presence of GABA, — = value not measurable. Here is the method:
as §1

pEC50, pIC50: −log10 of the molar value.

T14 sequence (P31644 32-462): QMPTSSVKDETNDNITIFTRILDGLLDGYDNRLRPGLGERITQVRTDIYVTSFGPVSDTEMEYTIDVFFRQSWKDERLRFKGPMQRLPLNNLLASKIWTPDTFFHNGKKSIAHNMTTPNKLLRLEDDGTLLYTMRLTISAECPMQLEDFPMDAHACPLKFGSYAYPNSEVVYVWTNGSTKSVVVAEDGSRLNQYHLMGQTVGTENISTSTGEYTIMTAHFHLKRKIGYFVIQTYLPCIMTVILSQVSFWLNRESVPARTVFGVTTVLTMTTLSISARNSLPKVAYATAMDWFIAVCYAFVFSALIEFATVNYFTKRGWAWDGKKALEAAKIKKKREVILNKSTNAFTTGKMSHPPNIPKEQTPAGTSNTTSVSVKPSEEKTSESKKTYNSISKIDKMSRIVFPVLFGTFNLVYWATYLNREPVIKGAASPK
T14 sequence (P47870 25-512 limits assumed): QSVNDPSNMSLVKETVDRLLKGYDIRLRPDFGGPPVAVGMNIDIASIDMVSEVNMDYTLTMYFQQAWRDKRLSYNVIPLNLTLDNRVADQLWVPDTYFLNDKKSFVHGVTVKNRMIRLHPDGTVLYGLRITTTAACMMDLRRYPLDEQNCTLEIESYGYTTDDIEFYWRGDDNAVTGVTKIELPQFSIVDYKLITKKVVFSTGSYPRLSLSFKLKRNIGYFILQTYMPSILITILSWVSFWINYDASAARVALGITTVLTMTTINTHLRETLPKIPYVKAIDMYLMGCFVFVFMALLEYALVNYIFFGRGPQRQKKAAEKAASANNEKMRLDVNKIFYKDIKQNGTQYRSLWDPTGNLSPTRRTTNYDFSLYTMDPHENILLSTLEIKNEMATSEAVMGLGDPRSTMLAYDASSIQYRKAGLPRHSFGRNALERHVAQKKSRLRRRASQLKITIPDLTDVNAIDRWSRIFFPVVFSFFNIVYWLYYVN
T14 sequence (P18507 40-475 partner): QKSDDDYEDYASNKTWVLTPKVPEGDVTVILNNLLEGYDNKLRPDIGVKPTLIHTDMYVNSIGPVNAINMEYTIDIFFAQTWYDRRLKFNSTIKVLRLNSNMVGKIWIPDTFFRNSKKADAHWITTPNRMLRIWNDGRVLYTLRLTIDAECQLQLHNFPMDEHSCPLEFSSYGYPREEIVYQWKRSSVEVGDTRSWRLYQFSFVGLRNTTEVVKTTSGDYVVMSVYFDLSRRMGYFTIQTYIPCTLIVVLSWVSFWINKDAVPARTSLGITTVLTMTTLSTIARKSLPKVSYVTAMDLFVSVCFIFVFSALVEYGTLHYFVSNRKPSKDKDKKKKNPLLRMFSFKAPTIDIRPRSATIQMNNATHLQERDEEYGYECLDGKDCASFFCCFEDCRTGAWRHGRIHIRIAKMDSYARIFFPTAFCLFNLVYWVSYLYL
T15 sequence (P31644 32-462): as the sequence (P31644 32-462) above
T15 sequence (P28472 26-473): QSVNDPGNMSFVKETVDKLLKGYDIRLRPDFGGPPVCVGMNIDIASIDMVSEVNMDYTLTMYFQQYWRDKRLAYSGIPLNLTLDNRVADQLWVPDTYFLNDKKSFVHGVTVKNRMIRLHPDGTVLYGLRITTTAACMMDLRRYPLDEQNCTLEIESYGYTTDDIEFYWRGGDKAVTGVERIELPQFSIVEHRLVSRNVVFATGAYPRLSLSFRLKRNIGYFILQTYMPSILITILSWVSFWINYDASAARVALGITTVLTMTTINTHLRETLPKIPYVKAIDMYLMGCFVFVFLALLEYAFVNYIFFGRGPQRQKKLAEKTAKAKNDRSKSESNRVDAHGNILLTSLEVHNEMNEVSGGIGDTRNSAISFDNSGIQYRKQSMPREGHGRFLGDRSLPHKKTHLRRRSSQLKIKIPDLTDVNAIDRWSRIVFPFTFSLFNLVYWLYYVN
T15 sequence (P18507 40-475 partner): as the sequence (P18507 40-475 partner) above
T1 sequence (P14867 28-456): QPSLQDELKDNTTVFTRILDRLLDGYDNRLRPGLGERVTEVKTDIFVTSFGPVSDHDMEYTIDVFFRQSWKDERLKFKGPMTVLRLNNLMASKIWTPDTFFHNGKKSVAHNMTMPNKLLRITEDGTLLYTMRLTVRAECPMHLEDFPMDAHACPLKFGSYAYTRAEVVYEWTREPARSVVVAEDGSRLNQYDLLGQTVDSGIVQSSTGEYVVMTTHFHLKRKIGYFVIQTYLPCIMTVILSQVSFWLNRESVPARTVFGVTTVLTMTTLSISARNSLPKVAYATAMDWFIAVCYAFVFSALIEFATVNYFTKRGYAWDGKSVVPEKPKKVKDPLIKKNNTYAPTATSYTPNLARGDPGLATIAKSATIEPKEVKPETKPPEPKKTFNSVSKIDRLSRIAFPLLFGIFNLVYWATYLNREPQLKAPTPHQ
T1 sequence (P47870 25-512 limits assumed): as the sequence (P47870 25-512 limits assumed) above
T1 sequence (P18507 40-475 partner): as the sequence (P18507 40-475 partner) above
T18 sequence (Q16445 20-453): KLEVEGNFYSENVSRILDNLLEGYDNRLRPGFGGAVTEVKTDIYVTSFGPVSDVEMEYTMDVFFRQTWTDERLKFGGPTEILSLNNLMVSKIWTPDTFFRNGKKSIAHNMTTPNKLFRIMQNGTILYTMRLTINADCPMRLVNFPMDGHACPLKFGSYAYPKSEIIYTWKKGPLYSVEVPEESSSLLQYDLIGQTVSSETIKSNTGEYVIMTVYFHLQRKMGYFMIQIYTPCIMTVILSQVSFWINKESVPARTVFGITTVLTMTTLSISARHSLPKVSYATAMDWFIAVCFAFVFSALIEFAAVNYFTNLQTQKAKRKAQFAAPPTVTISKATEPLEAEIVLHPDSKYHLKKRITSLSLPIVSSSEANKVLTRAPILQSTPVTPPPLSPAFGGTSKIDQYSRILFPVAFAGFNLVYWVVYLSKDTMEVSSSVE
T18 sequence (P28472 26-473): as the sequence (P28472 26-473) above
T18 sequence (P18507 40-475 partner): as the sequence (P18507 40-475 partner) above
T2 sequence (P48169 36-554): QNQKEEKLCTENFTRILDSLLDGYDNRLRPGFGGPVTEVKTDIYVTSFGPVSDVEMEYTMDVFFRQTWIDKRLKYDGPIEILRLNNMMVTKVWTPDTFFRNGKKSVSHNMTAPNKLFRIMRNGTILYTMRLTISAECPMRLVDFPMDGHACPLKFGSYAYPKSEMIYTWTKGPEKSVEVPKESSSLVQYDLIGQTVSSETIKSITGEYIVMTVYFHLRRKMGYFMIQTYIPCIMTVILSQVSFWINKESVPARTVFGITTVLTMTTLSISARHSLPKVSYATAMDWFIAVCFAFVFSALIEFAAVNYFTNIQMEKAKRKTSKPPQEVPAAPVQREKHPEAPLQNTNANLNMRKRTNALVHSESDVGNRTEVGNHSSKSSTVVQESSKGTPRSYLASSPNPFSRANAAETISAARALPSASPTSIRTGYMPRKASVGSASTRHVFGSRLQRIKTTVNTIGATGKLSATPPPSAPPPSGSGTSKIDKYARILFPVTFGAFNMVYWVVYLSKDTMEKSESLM
T2 sequence (P28472 26-473): as the sequence (P28472 26-473) above
T2 sequence (O14764 25-452 partner): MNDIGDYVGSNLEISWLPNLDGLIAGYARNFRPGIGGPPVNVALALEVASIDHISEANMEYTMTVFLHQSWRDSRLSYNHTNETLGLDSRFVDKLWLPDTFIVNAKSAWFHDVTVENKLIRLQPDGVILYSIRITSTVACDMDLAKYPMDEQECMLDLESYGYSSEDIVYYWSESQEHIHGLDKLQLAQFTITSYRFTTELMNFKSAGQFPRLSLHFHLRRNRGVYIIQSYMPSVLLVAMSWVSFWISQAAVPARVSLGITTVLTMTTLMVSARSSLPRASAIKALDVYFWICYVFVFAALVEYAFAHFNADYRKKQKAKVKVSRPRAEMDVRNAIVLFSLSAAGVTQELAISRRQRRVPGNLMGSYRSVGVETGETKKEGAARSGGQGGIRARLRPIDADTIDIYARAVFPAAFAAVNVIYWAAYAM
T7 sequence (P47869 29-451): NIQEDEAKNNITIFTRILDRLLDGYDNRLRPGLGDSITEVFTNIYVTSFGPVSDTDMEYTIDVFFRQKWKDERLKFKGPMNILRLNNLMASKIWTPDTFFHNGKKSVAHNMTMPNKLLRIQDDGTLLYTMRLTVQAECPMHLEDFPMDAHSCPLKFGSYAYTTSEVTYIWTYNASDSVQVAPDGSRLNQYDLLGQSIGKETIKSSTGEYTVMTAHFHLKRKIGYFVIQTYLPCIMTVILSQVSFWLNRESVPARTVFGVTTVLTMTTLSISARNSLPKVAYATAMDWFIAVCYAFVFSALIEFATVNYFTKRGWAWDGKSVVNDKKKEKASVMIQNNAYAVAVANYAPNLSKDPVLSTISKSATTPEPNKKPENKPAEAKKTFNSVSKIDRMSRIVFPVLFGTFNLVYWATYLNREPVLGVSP
T7 sequence (P28472 26-473): as the sequence (P28472 26-473) above
T7 sequence (P18507 40-475 partner): as the sequence (P18507 40-475 partner) above
T6 sequence (P47869 29-451): as the sequence (P47869 29-451) above
T6 sequence (P47870 25-512 limits assumed): as the sequence (P47870 25-512 limits assumed) above
T6 sequence (P18507 40-475 partner): as the sequence (P18507 40-475 partner) above
T4 sequence (P14867 28-456): as the sequence (P14867 28-456) above
T4 sequence (P28472 26-473): as the sequence (P28472 26-473) above
T4 sequence (P18507 40-475 partner): as the sequence (P18507 40-475 partner) above
T17 sequence (Q16445 20-453): as the sequence (Q16445 20-453) above
T17 sequence (P47870 25-512 limits assumed): as the sequence (P47870 25-512 limits assumed) above
T17 sequence (P18507 40-475 partner): as the sequence (P18507 40-475 partner) above

Usually pIC50 stands for the negative decadic logarithm of the IC50, by convention in mol/L. `C[C@@]1(O)CC[C@@]2(C)[C@@H](CC[C@@H]3[C@@H]2CC[C@]2(C)[C@@H](C(=O)Cn4ccc(C#N)n4)CC[C@@H]32)C1` [Compound 121]: the pIC50 in assay [1] is 7.30 to 8.00. For the same molecule, the “efficacy (relative potentiation of GABA-mediated conductance)” value on α1β2γ2 GABAA receptor [2] and on α4β3δ GABAA receptor [3] was > 500% throughout.

For the molecule `C[C@@]1(O)CC[C@@]2(C)[C@H](CC[C@@H]3[C@@H]2CC[C@]2(C)[C@@H](C(=O)Cn4cc(C#N)cn4)CC[C@@H]32)C1` [Compound 10], the pIC50 in assay [1] is > 8.00.

One may read the pEC50 as −log10 of the EC50, conventionally taken in molar units. For the molecule `C[C@@]1(O)CC[C@@]2(C)[C@@H](CC[C@@H]3[C@@H]2CC[C@]2(C)[C@@H](C(=O)Cn4cc(C#N)cn4)CC[C@@H]32)C1` [CV-10155, 1-[2-[(3R,5S,8R,9S,10S,13S,14S,17S)-3-hydroxy-3,10,13-trimethyl-1,2,4,5,6,7,8,9,11,12,14,15,16,17-tetradecahydrocyclopenta[a]phenanthren-17-yl]-2-oxoethyl]pyrazole-4-carbonitrile], the pEC50 on α1β1γ2 GABAA receptor is 6.28; at α1β2γ2 GABAA receptor [4], 6.08; on α1β3γ2 GABAA receptor, 6.28; on α2β1γ2 GABAA receptor it was 6.60; at α2β2γ2 GABAA receptor, 6.67; on α2β3γ2 GABAA receptor, 6.53. In addition, the pEC50 was 6.02 at α3β1γ2 GABAA receptor; 5.74 at α3β2γ2 GABAA receptor; 6.56 on α3β3γ2 GABAA receptor; 6.69 on α4β1γ2 GABAA receptor; 5.88 at α4β3γ2 GABAA receptor; 6.12 at α5β1γ2 GABAA receptor. For the same molecule, the negative logarithm of the EC50 (pEC50) at α5β2γ2 GABAA receptor is 6.44; at α5β3γ2 GABAA receptor, 5.89; on α6β1γ2 GABAA receptor, 6.44; on α6β2γ2 GABAA receptor, 5.96; at α6β3γ2 GABAA receptor, 6.61; at α4β3δ GABAA receptor [5] it was 6.97. Further, the “modulating activity across GABAA receptor subtypes tested” value in the assay with GABAA receptor subtypes is recorded as “some level of positive allosteric modulating activity in all of the GABAA receptor subtypes tested”. Also, in the assay with GABAA receptor subtypes (comparison of Example 1 data), the “activity on α4β3δ versus α1β2γ2 GABAA receptors” value was “substantially more active on α4β3δ GABAA receptors than on α1β2γ2 GABAA receptors”.

As to `C[C@]1(O)CC[C@@]2(C)[C@@H](CC[C@@H]3[C@@H]2CC[C@]2(C)[C@@H](C(=O)Cn4cc(C#N)cn4)CC[C@@H]32)C1` [SPNC-019, reference compound], the pEC50 at α5β2γ2 GABAA receptor is 5.92; on α5β3γ2 GABAA receptor it was 5.74; on α6β3γ2 GABAA receptor, 5.75. In addition, in the assay on GABAA receptor subtypes, the “modulating activity across GABAA receptor subtypes tested” value is “no modulating activity in 15 of the 18 GABAA receptor subtypes tested”.

The values are drawn from patent US20230210870A1, “METHODS OF TREATING FEMALE HEALTH CONDITIONS RELATED TO SEX HORMONES” (priority 2020, published 2023).
